System: OVCAR-5 ovarian cancer model
Test: nExos in serum and ascites of OVCAR-5 tumor-bearing mice by imaging flow cytometry
Assay type: in vivo, mouse
Settings: topotecan 7.5 mg/kg vs vehicle control
Source text: Exosome staining for imaging flow cytometry and analysis. For quantitative analysis and imaging flow cytometry of exosomes, the method described by Erdbrugger et al. (2014) using an Amnis ImageStreamX MarkII analyzer was adapted. Briefly, 3×10^9 to 5×10^9 particles were isolated from either tissue culture cells, mouse serum and ascites, or serum obtained from patients with ovarian cancer and resuspended in PBS. Exosomes were placed in a sterile 1.5-ml Eppendorf tube and stained with CellMask Green Plasma Membrane (CMG) stain (1:250 dilution; C37608, Thermo Fisher Scientific) for 30 min at 37° C., protected from light. Exosomes were then washed to remove excess CMG by adding 2 ml of PBS and pelleted by ultracentrifugation at 40,000 rpm for 2 hours at 4° C. […]
To stain for dsDNA, CMG-stained exosomes were co-stained with DRAQ5 (62254, Thermo Fisher Scientific) at either 1:50 dilution for biofluid exosome samples or 1:250 dilution for cell culture samples and were lightly agitated at RT for 1 hour, protected from light. Samples were then placed on ice, and images of single exosomes were detected using the 60× objective of an Amnis ImageStreamX MarkII analyzer. […] Particle size was estimated using Invitrogen Flow Cytometry Submicron Particle Size Reference Beads (F13839, Thermo Fisher Scientific), allowing exclusion of particles <150 nm based on the signal detected from side scatter. […]

With `CC[C@@]1(O)C(=O)OCc2c1cc1n(c2=O)Cc2cc3c(CN(C)C)c(O)ccc3nc2-1` [topotecan] the nExos in ascites (ascites, P=0.028) was “significant increase” and the nExos in serum (serum) was “no difference”.

— patent publication US20220163532A1, “NUCLEAR-DERIVED EXOSOMES AND METHODS OF USE THEREOF” (Board of Regents, The University of Texas System, priority 2019, published 2022)
